# What was measured:
# [1] = system: SHR (spontaneously/genetically hypertensive rats); assay: Morphology (body, kidney, heart weight), SHR; format: in vivo; details: mean ± SEM
# L-NAME rats = assay: Serum nitric oxide, L-NAME rats; format: in vivo; set-up: unit not given here
# normotensive animals [2] = assay: Erythrocyte antioxidant enzymes (SOD, GSH-Px, CAT), normotensive animals; format: in vivo, rats
# normotensive rats = assay: Serum nitric oxide, normotensive rats; format: in vivo; set-up: unit not given here
# [3] = system: L-NAME induced hypertensive rats; assay: Morphology (body, kidney, heart weight), L-NAME rats; format: in vivo; details: mean ± SEM
# From the text: (§1) The organ protective properties of the palm leaves extract and palm leaves functional ingredients on heart, and kidneys are shown in the morphology Table 4 below. […] Kidney/BW were similar in all groups. […] However, in L-NAME+captopril rats had lower Heart/BW ratio versus L-NAME.
# [4] = system: SHR (spontaneous/genetically hypertensive animals); assay: Organ antioxidant enzymes (kidney, heart, brain), SHR; format: in vivo, rats
# From the text: SOD, GSH-Px, and CAT is the first line of antioxidative enzyme defense against oxidative stress, converting reactive oxygen to hydrogen peroxide and water.
# [5] = system: SHR (spontaneously hypertensive rats); assay: Serum nitric oxide, SHR; format: in vivo; set-up: unit not given here
# [6] = system: SHR (spontaneous/genetically hypertensive animals); assay: Erythrocyte antioxidant enzymes (SOD, GSH-Px, CAT), SHR; format: in vivo, rats
# From the text: SOD, GSH-Px, and CAT is the first line of antioxidative enzyme defense against oxidative stress, converting reactive oxygen to hydrogen peroxide and water. SOD, GSH-Px, and CAT […] activity indicate […] oxidative stress in hypertensive animals supplemented with oil palm leaves extract.
# normotensive animals [7] = assay: Morphology (body, kidney, heart weight), normotensive rats; format: in vivo; details: mean ± SEM
# From the text: as §1
smiles,measurement,setting,value
"C[C@H](CS)C(=O)N1CCC[C@H]1C(=O)O [Captopril, captopril]",Final body weight,[1],259.09 ± 5.53 g
same,Heart,[1],1.16 ± 0.07 g
same,Heart/Body weight,[1],4.533 ± 0.0002 mg/g
same,Kidney,[1],2.074 ± 0.09 g
same,Kidney/Body Weight,[1],8.139 ± 0.0004 mg/g
same,nitric oxide values measured in serum,L-NAME rats; Week 0,0.402 ± 0.008
same,nitric oxide values measured in serum,L-NAME rats; Week 6,0.585 ± 0.082
same,nitric oxide values measured in serum,L-NAME rats; Week 8,0.742 ± 0.123
same,nitric oxide values measured in serum,L-NAME rats; Week 12,0.44 ± 0.072
same,Erythrocyte Catalase,normotensive animals [2]; Week 0,0.014 ± 0.0006 k/ml
same,Erythrocyte CuZn-SOD,normotensive animals [2]; Week 0,0.014 ± 0.0010 U/ml
same,Erythrocyte Glutathione Peroxidase,normotensive animals [2]; Week 0,16.5 ± 0.76
same,Erythrocyte Catalase,normotensive animals [2]; Week 6,0.013 ± 0.0003 k/ml
same,Erythrocyte CuZn-SOD,normotensive animals [2]; Week 6,0.022 ± 0.0006 U/ml
same,Erythrocyte Glutathione Peroxidase,normotensive animals [2]; Week 6,21.1 ± 5.05
same,Erythrocyte Catalase,normotensive animals [2]; Week 8,0.014 ± 0.0005 k/ml
same,Erythrocyte CuZn-SOD,normotensive animals [2]; Week 8,0.015 ± 0.0019 U/ml
same,Erythrocyte Glutathione Peroxidase,normotensive animals [2]; Week 8,9.3 ± 1.24
same,Erythrocyte Catalase,normotensive animals [2]; Week 12,0.013 ± 0.0008 k/ml
same,Erythrocyte CuZn-SOD,normotensive animals [2]; Week 12,0.018 ± 0.0006 U/ml
same,Erythrocyte Glutathione Peroxidase,normotensive animals [2]; Week 12,26.2 ± 6.90
same,nitric oxide values measured in serum,normotensive rats; Week 0,0.381 ± 0.023
same,nitric oxide values measured in serum,normotensive rats; Week 6,0.573 ± 0.024
same,nitric oxide values measured in serum,normotensive rats; Week 8,0.455 ± 0.060
same,nitric oxide values measured in serum,normotensive rats; Week 12,0.525 ± 0.071
same,Final body weight,[3],296.4 ± 5.97 g
same,Heart,[3],0.91 ± 0.07 g
same,Heart/Body weight,[3],3.096 ± 0.0003 mg/g
same,Kidney,[3],2.017 ± 0.07 g
same,Kidney/Body Weight,[3],6.822 ± 0.0002 mg/g
same,Organ Catalase,[4]; Heart,4.08 ± 0.458 k/mg protein
same,Organ CuZn-SOD,[4]; Heart,0.78 ± 0.301 U/mg protein
same,Organ GPx,[4]; Heart,3.20 ± 0.23 U/mg protein
same,Organ Catalase,[4]; Kidney,25.96 ± 2.04 k/mg protein
same,Organ CuZn-SOD,[4]; Kidney,0.80 ± 0.199 U/mg protein
same,Organ GPx,[4]; Kidney,2.02 ± 0.184 U/mg protein
same,Organ Catalase,[4]; brain,1.96 ± 0.27 k/mg protein
same,Organ CuZn-SOD,[4]; brain,1.26 ± 0.097 U/mg protein
same,Organ GPx,[4]; brain,2.87 ± 0.360 U/mg protein
same,nitric oxide values measured in serum,[5]; Week 0,0.230 ± 0.02
same,nitric oxide values measured in serum,[5]; Week 6,0.425 ± 0.05
same,nitric oxide values measured in serum,[5]; Week 8,0.438 ± 0.08
same,nitric oxide values measured in serum,[5]; Week 12,0.572 ± 0.02 +
same,Erythrocyte Catalase,[6]; Week 0,0.019 ± 0.0007 k/ml
same,Erythrocyte CuZn-SOD,[6]; Week 0,0.019 ± 0.0012 U/ml
same,Erythrocyte Glutathione Peroxidase,[6]; Week 0,31.47 ± 0.94
same,Erythrocyte Catalase,[6]; Week 6,0.017 ± 0.0003 k/ml
same,Erythrocyte CuZn-SOD,[6]; Week 6,0.009 ± 0.0012 U/ml
same,Erythrocyte Glutathione Peroxidase,[6]; Week 6,12.69 ± 2.47
same,Erythrocyte Catalase,[6]; Week 8,0.017 ± 0.0004 k/ml
same,Erythrocyte CuZn-SOD,[6]; Week 8,0.011 ± 0.0004 U/ml
same,Erythrocyte Glutathione Peroxidase,[6]; Week 8,28.77 ± 2.05
same,Erythrocyte Catalase,[6]; Week 12,0.016 ± 0.0003 k/ml
same,Erythrocyte CuZn-SOD,[6]; Week 12,0.012 ± 0.0007 U/ml
same,Erythrocyte Glutathione Peroxidase,[6]; Week 12,34.63 ± 2.2
same,Final body weight,normotensive animals [7],291.4 ± 8.56 g
same,Heart,normotensive animals [7],1.02 ± 0.04 g
same,Heart/Body weight,normotensive animals [7],3.558 ± 0.0002 mg/g
same,Kidney,normotensive animals [7],2.140 ± 0.07 g
same,Kidney/Body Weight,normotensive animals [7],7.370 ± 0.0003 mg/g
